In patent US9656971B2, “COMT inhibitors” (Hoffmann-La Roche Inc., priority 2012, dated 2017) one finds IC50 data, which are given here for 44 compounds.

Like-named read-outs stand apart in the source and are kept apart here.

The target in the experiment is T1, Rec. human COMT (Homo sapiens, UniProt P21964).
T1 sequence (P21964 1-271): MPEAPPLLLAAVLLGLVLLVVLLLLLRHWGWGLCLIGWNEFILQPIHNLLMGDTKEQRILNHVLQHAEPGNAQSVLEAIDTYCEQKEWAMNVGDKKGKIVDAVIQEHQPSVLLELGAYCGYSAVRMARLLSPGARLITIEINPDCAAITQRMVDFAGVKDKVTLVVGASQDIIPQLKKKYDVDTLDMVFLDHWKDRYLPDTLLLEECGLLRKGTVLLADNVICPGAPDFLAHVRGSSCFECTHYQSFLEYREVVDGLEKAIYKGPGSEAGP
Kind of experiment: COMT-Fluorescence Assay. Conditions: rec. human COMT 25 nM, 4-Nitrocatechol-Alexa488 200 nM, SAM 500 nM. The experiment is classed as biochemical. Here is the method:
This intramolecular interaction is disturbed if the 4-Nitrocatechol is methylated. […] This increase of fluorescence intensity can be followed in a kinetic measurement. The slope in the linear range of the kinetic is calculated. An inhibitor compound decreases the slope.
Signal [rfu/min]=(rfu(end-point)−rfu(startpoint))/incubation_time_#2

Where [1] appears, read: COMT-fluorescence assay, read-out: IC50.

Turning to `O=c1[nH]cnc2c(O)cc(-c3cccnc3OCC(F)(F)F)cc12` [Example 216, 8-Hydroxy-6-(2-(2,2,2-trifluoroethoxy)pyridin-3-yl)quinazolin-4(3H)-one], the IC50 (in general, the concentration needed to halve the response being measured) under setting [1] is 40 nM. For `CS(=O)(=O)c1ccccc1-c1cc(O)c2nc[nH]c(=O)c2c1` [Example 212, 8-Hydroxy-6-(2-(methylsulfonyl)phenyl)quinazolin-4(3H)-one], under “IC50, COMT-fluorescence assay”, the IC50 turned out to be 870 nM. As to `N#Cc1ccc(-c2c(-c3ccc(F)cc3)cc(O)c3nc[nH]c(=O)c23)cc1` [Example 64, 4-[6-(4-Fluoro-phenyl)-8-hydroxy-4-oxo-3,4-dihydro-quinazolin-5-yl]-benzonitrile], under setting [1], the IC50 amounted to 10 nM. Take `O=c1[nH]cnc2c(O)cc(-c3ccc(F)c(F)c3F)cc12` [Example 31, 8-Hydroxy-6-(2,3,4-trifluoro-phenyl)-3H-quinazolin-4-one]: under setting [1], the IC50 was determined as 20 nM.

Consider `Cn1ncc2c(-c3cc(O)c4nc[nH]c(=O)c4c3)cccc21` [Example 156, 8-Hydroxy-6-(1-methyl-1H-indazol-4-yl)quinazolin-4(3H)-one], for which, under setting [1], the IC50 was 10 nM.

Consider `O=c1[nH]cnc2c(O)cc(-c3ccc(F)cc3)c(Br)c12` [Example 122, 5-Bromo-6-(4-fluorophenyl)-8-hydroxyquinazolin-4(3H)-one], for which the IC50 under setting [1] came out at 10 nM.

In the case of `CSCc1ccccc1-c1cc(O)c2nc[nH]c(=O)c2c1` [Example 114], the IC50 under setting [1] stood at 40 nM. Same read-out and setting: with `Cc1c(Br)cc2c(=O)[nH]cnc2c1O` [Example 136, 6-Bromo-8-hydroxy-7-methylquinazolin-4(3H)-one] the figure was 3210 nM. For the compound `CN1CCN(C(=O)c2cccc(-c3cc(O)c4nc[nH]c(=O)c4c3)c2)CC1` [Example 191, 8-Hydroxy-6-[3-(4-methyl-piperazine-1-carbonyl)-phenyl]-3H-quinazolin-4-one], the IC50 under setting [1] is 30 nM. `COC(=O)c1cc(O)c2nc[nH]c(=O)c2c1` [Example 2, Methyl 8-hydroxy-4-oxo-3,4-dihydroquinazoline-6-carboxylate]: the IC50 under setting [1] was determined as 30 nM. On to `O=c1[nH]cnc2c(O)c(F)cc(-c3ccc(F)cc3)c12` [Example 124, 7-Fluoro-5-(4-fluorophenyl)-8-hydroxyquinazolin-4(3H)-one], for which the IC50 under setting [1] was 200 nM. On the same count and under the same terms, the figure for `O=c1[nH]cnc2c(O)cc(C3=Cc4ccccc4CC3)cc12` [Example 7, 6-(3,4-Dihydro-naphthalen-2-yl)-8-hydroxy-3H-quinazolin-4-one] is 10 nM; for `CN(C)c1ccc(/N=N/c2ccccc2)c(-c2cc(O)c3nc[nH]c(=O)c3c2)c1` [Example 29, (E)-6-(5-(Dimethylamino)-2-(phenyldiazenyl)phenyl)-8-hydroxyquinazolin-4(3H)-one] it is 2800 nM; for `Cc1cnc(-c2cc(O)c3nc[nH]c(=O)c3c2)s1` [Example 72, 8-Hydroxy-6-(5-methylthiazol-2-yl)quinazolin-4(3H)-one] it is 30 nM.

With `O=c1[nH]cnc2c(O)cc(I)cc12` [Example 137, 8-Hydroxy-6-iodo-3H-quinazolin-4-one], the IC50 under setting [1] was found to be 60 nM. As for `CC(C)N(Cc1ccccc1-c1cc(O)c2nc[nH]c(=O)c2c1)C(C)C` [Example 218, 6-(2-((Diisopropylamino)methyl)phenyl)-8-hydroxyquinazolin-4(3H)-one], under setting [1], the IC50 came out at 1400 nM. In the case of `Cn1ccnc1-c1cc(O)c2nc[nH]c(=O)c2c1` [Example 73, 8-Hydroxy-6-(1-methyl-1H-imidazol-2-yl)quinazolin-4(3H)-one], under setting [1], the IC50 worked out at 40 nM.

Regarding `O=C(NCCN1CCOCC1)c1ccc(-c2cc(O)c3nc[nH]c(=O)c3c2)cc1` [Example 172, 4-(8-Hydroxy-4-oxo-3,4-dihydroquinazolin-6-yl)-N-(2-morpholinoethyl)benzamide], the IC50 under setting [1] was found to be 20 nM. Consider `O=c1[nH]cnc2c(O)ccc(F)c12` [Example 197, 5-Fluoro-8-hydroxyquinazolin-4(3H)-one], for which the IC50 under setting [1] worked out at 2530 nM. `O=C(c1cccc(-c2cc(O)c3nc[nH]c(=O)c3c2)c1)N1CCOCC1` [Example 175, 8-Hydroxy-6-(3-(morpholine-4-carbonyl)phenyl)quinazolin-4(3H)-one]: under setting [1], the IC50 stood at 20 nM. `Cc1ccc(F)cc1-c1cc(O)c2nc[nH]c(=O)c2c1` [Example 213, 6-(5-Fluoro-2-methylphenyl)-8-hydroxyquinazolin-4(3H)-one] yielded an IC50 (IC50, COMT-fluorescence assay) of 30 nM. As to `O=c1[nH]cnc2c(O)c(F)c(-c3ccc(F)cc3)cc12` [Example 201, 7-Fluoro-6-(4-fluorophenyl)-8-hydroxyquinazolin-4(3H)-one], the IC50 under setting [1] amounted to 20 nM.

On to `O=c1[nH]cnc2c(O)cc(-c3ccnc(N4CCNCC4)c3)cc12` [Example 185, 8-Hydroxy-6-(2-(piperazin-1-yl)pyridin-4-yl)quinazolin-4(3H)-one], for which the IC50 under setting [1] came out at 20 nM. In the case of `O=c1[nH]cnc2c(O)cc(C3=CCCCC3)cc12` [Example 186, 6-Cyclohexenyl-8-hydroxyquinazolin-4(3H)-one], the IC50 under setting [1] was determined as 30 nM. Regarding `COCc1ncccc1-c1cc(O)c2nc[nH]c(=O)c2c1` [Example 110, 8-Hydroxy-6-(2-(methoxymethyl)pyridin-3-yl)quinazolin-4(3H)-one bis(2,2,2-trifluoroacetate)], under setting [1], the concentration for half-maximal inhibition (IC50) was determined as 20 nM.

With `COc1ccc(-c2cc(O)c3nc[nH]c(=O)c3c2)cn1` [Example 163, 8-Hydroxy-6-(6-methoxypyridin-3-yl)quinazolin-4(3H)-one], the concentration for half-maximal inhibition (IC50) under setting [1] came to 40 nM. Consider `O=c1[nH]cnc2c(O)cc(Br)c(C(F)(F)F)c12` [Example 41, 6-Bromo-8-hydroxy-5-(trifluoromethyl)quinazolin-4(3H)-one], for which the IC50 under setting [1] is 160 nM.

`O=c1[nH]cnc2c(O)c(F)c(-c3ccc(F)cc3)c(-c3ccc(F)cc3)c12` [Example 123, 7-Fluoro-5,6-bis(4-fluorophenyl)-8-hydroxyquinazolin-4(3H)-one]: under setting [1], the IC50 was 10 nM. For `COc1ccccc1-c1cc(O)c2nc[nH]c(=O)c2c1` [Example 161, 8-Hydroxy-6-(2-methoxyphenyl)quinazolin-4(3H)-one], the IC50 under setting [1] is 50 nM. Regarding `COCc1cc(COC(=O)N2CCN(C(C)C)CC2)ccc1-c1cc(O)c2nc[nH]c(=O)c2c1` [Example 109, 4-(8-Hydroxy-4-oxo-3,4-dihydroquinazolin-6-yl)-3-(methoxymethyl)benzyl 4-isopropylpiperazine-1-carboxylate bis(2,2,2-trifluoroacetate)], the IC50 under setting [1] was determined as 20 nM. In the case of `CS(=O)(=O)Cc1ccccc1-c1cc(O)c2nc[nH]c(=O)c2c1Cl` [Example 119, 5-Chloro-8-hydroxy-6-(2-(methylsulfonylmethyl)phenyl)quinazolin-4(3H)-one], the IC50 under setting [1] is 610 nM.

With `Cc1ccc(C(=O)c2cc(O)c3nc[nH]c(=O)c3c2)s1` [Example 94, 8-Hydroxy-6-(5-methylthiophene-2-carbonyl)quinazolin-4(3H)-one], the IC50 under setting [1] turned out to be 90 nM. For the compound `CN(C)Cc1ccccc1-c1cc(O)c2nc[nH]c(=O)c2c1` [Example 155, 6-(2-((Dimethylamino)methyl)phenyl)-8-hydroxyquinazolin-4(3H)-one], for the setting “IC50, COMT-fluorescence assay”, the IC50 came to 1380 nM.

`CN(C)CCc1cccc(-c2cc(O)c3nc[nH]c(=O)c3c2)c1` [Example 247, 6-(3-(2-(Dimethylamino)ethyl)phenyl)-8-hydroxyquinazolin-4(3H)-one] came in with an IC50 (IC50, COMT-fluorescence assay) of 50 nM. In the case of `O=c1[nH]cnc2c(O)cc(-c3ccccc3)cc12` [Example 128, 8-Hydroxy-6-phenylquinazolin-4(3H)-one], the IC50 under setting [1] turned out to be 20 nM.

In the case of `O=c1[nH]cnc2c(O)cc(Cc3ccccc3F)cc12` [Example 11, 6-(2-Fluorobenzyl)-8-hydroxyquinazolin-4(3H)-one], under setting [1], the IC50 stood at 1250 nM. For the compound `COCc1cccc(-c2cc(O)c3nc[nH]c(=O)c3c2)c1` [Example 71, 8-Hydroxy-6-(3-(methoxymethyl)phenyl)quinazolin-4(3H)-one], under “IC50, COMT-fluorescence assay”, 20 nM corresponded to half-maximal inhibition (IC50). Consider `O=c1[nH]cnc2c(O)cc(-c3ccc(-c4ccccn4)s3)cc12` [Example 89, 8-Hydroxy-6-(5-(pyridin-2-yl)thiophen-2-yl)quinazolin-4(3H)-one], for which the IC50 under setting [1] was determined as 20 nM. Turning to `O=C(NCC(F)(F)C(F)(F)F)c1cc(O)c2nc[nH]c(=O)c2c1` [Example 4, 8-Hydroxy-4-oxo-N-(2,2,3,3,3-pentafluoropropyl)-3,4-dihydroquinazoline-6-carboxamide], under setting [1], the IC50 turned out to be 170 nM. `O=c1[nH]cnc2c(O)cc(-c3ccc(F)cc3)c(-c3cccc(C(F)(F)F)c3)c12` [Example 53, 6-(4-Fluorophenyl)-8-hydroxy-5-(3-(trifluoromethyl)phenyl)quinazolin-4(3H)-one]: under setting [1], the IC50 came out at 20 nM.

For the compound `O=C(c1cccnc1)c1cc(O)c2nc[nH]c(=O)c2c1` [Example 74, 8-Hydroxy-6-nicotinoylquinazolin-4(3H)-one], the IC50 under setting [1] is 250 nM. On to `O=c1[nH]cnc2c(O)cc(-c3ccc4c(c3)OCCO4)cc12` [Example 176, 6-(2,3-Dihydrobenzo[b][1,4]dioxin-6-yl)-8-hydroxyquinazolin-4(3H)-one], for which the IC50 under setting [1] worked out at 20 nM. Compound `CS(=O)(=O)Cc1ccccc1-c1cc(O)c2nc[nH]c(=O)c2c1` [Example 115, 8-Hydroxy-6-(2-(methylsulfonylmethyl)phenyl)quinazolin-4(3H)-one 2,2,2-trifluoroacetate] displayed an IC50 (IC50, COMT-fluorescence assay) of 50 nM. As for `O=c1[nH]cnc2c(O)cc(Cl)cc12` [Example 139, 6-Chloro-8-hydroxyquinazolin-4(3H)-one], the IC50 under setting [1] came out at 290 nM.
